Assay results from patent US20120172379A1, “4 SUBSTITUTED PYRAZOLOPYRIMIDINES” (VERTEX PHARMACEUTICALS INCORPORATED, priority 2009, published 2012).

Legend:
Assay type in all cases: biochemical
[1] = target: PKC alpha kinase (Homo sapiens, UniProt P17252); assay: PKC Alpha coupled-enzyme kinase assay (NADH consumption, absorbance at 340 nm); conditions: 4.5 nM PKC alpha kinase, 130 μM ATP, 150 μM substrate peptide, 100 μM CaCl2, 30° C.
Method: An assay buffer solution was prepared which consisted of 100 mM HEPES (pH 7.5), 10 mM MgCl2, 25 mM NaCl, 0.1 mM EDTA, 100 μM CaCl2 and 0.01% Brij. An enzyme buffer containing reagents to final assay concentrations of 0.002% Triton X-100, 100 μg/mL Phosphatidylserine, 20 μg/mL Diacylglycerol, 360 μM NADH, 3 mM phosphoenolpyruvate, 70 μg/mL pyruvate kinase, 24 μg/mL lactate dehydrogenase, 2 mM DTT, 150 μM substrate peptide (RRRRRKGSFKRKA SEQ ID NO. 3) and 4.5 nM PKC alpha kinase was prepared in assay buffer. To 16 μL of this enzyme buffer, in a 384 well plate, was added 1 μL of VRT stock solution in DMSO. The mixture was allowed to equilibrate for 10 mins at 30° C. The enzyme reaction was initiated by the addition of 16 μL stock ATP solution prepared in assay buffer to a final assay concentration of 130 μM. Initial rate data was determined from the rate of change of absorbance at 340 nm (corresponding to stoichiometric consumption of NADH) using a Molecular Devices Spectramax plate reader (Sunnyvale, Calif.) over 15 mins at 30° C. For each Ki determination 12 data points covering the VRT concentration range of 0-20 μM were obtained in duplicate (DMSO stocks were prepared from an initial 10 mM VRT stock with subsequent 1:2 serial dilutions). Ki values were calculated from initial rate data by non-linear regression using the Prism software package (Prism 4.0a, Graphpad Software, San Diego, Calif.).

[2] = target: PKC delta kinase (Homo sapiens, UniProt Q05655); assay: PKC Delta coupled-enzyme kinase assay (NADH consumption, absorbance at 340 nm); conditions: 46 nM PKC delta kinase, ATP final assay concentration of 150, 150 μM substrate peptide, 30° C.
Sequence of PKC delta kinase (Q05655 whole entry): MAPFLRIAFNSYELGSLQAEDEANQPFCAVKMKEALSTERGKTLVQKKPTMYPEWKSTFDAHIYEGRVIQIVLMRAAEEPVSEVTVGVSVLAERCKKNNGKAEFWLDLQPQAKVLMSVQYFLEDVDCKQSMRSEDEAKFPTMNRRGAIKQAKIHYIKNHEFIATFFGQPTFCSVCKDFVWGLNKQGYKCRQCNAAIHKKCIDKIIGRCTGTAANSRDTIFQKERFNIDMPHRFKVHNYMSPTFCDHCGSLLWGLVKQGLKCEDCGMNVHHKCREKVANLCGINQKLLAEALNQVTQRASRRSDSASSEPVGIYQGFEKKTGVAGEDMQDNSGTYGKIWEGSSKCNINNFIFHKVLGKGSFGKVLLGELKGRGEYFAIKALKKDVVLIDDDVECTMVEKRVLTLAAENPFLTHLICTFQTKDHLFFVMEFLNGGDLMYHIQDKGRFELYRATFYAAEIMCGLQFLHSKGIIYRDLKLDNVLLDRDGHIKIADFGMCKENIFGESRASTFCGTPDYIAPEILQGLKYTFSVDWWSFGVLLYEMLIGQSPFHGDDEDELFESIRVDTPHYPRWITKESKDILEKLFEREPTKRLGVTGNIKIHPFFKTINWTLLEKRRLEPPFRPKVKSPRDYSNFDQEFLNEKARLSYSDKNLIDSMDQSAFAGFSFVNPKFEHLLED
Method: An assay buffer solution was prepared which consisted of 100 mM HEPES (pH 7.5), 10 mM MgCl2, 25 mM NaCl, 0.1 mM EDTA and 0.01% Brij. An enzyme buffer containing reagents to final assay concentrations of 0.002% Triton X-100, 200 μg/mL Phosphatidylserine, 20 μg/mL Diacylglycerol; 360 μM NADH, 3 mM phosphoenolpyruvate, 70 μg/mL pyruvate kinase, 24 μg/mL lactate dehydrogenase, 2 mM DTT, 150 μM substrate peptide (ERMRPRKRQGSVRRRV SEQ ID NO. 2) and 46 nM PKC delta kinase was prepared in assay buffer. To 16 μL of this enzyme buffer, in a 384 well plate, was added 1 μL of VRT stock solution in DMSO. The mixture was allowed to equilibrate for 10 mins at 30° C. The enzyme reaction was initiated by the addition of 16 μL stock ATP solution prepared in assay buffer to a final assay concentration of 150 Initial rate data was determined from the rate of change of absorbance at 340 nm (corresponding to stoichiometric consumption of NADH) using a Molecular Devices Spectramax plate reader (Sunnyvale, Calif.) over 15 mins at 30° C. For each Ki determination 12 data points covering the VRT concentration range of 0-20 μM were obtained in duplicate (DMSO stocks were prepared from an initial 10 mM VRT stock with subsequent 1:2 serial dilutions). Ki values were calculated from initial rate data by non-linear regression using the Prism software package (Prism 4.0a, Graphpad Software, San Diego, Calif.).

[3] = target: PKC theta kinase (Homo sapiens, UniProt Q04759); assay: PKC Theta coupled-enzyme kinase assay (NADH consumption, absorbance at 340 nm); conditions: 18 nM PKC theta kinase, 240 μM ATP, 100 μM substrate peptide, 30° C.
Sequence of PKC theta kinase (Q04759 whole entry): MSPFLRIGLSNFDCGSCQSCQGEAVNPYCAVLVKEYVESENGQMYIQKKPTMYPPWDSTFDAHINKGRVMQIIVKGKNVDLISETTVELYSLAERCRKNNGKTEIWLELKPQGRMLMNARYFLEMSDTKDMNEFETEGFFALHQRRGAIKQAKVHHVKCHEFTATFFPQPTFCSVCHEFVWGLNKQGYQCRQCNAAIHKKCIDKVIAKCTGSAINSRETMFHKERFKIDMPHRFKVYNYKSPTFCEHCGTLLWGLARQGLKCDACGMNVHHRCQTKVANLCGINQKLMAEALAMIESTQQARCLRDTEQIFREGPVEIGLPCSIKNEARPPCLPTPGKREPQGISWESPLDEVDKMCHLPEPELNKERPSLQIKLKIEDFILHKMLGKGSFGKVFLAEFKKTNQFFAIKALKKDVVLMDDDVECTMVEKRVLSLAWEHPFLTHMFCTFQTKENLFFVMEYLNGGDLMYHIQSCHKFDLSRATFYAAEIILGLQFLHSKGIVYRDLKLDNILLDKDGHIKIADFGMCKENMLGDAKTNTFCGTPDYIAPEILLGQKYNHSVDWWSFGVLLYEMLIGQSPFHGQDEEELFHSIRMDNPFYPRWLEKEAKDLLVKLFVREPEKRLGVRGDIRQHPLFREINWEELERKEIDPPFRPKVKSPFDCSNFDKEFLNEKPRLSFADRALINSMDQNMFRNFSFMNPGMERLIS
Method: An assay buffer solution was prepared which consisted of 100 mM HEPES (pH 7.5), 10 mM MgCl2, 25 mM NaCl, 0.1 mM EDTA and 0.01% Brij. An enzyme buffer containing reagents to final assay concentrations of 0.00001% Triton X-100, 200 μg/mL Phosphatidylserine, 20 μg/mL Diacylglycerol, 360 μM NADH, 3 mM phosphoenolpyruvate, 70 μg/mL pyruvate kinase, 24 μg/mL lactate dehydrogenase, 2 mM DTT, 100 μM substrate peptide (ERMRPRKRQGSVRRRV SEQ ID NO. 1) and 18 nM PKC theta kinase was prepared in assay buffer. To 60 μL of this enzyme buffer, in a 384 well plate, was added 2 μL of VRT stock solution in DMSO. The mixture was allowed to equilibrate for 10 mins at 30° C. The enzyme reaction was initiated by the addition of 5 μL stock ATP solution prepared in assay buffer to a final assay concentration of 240 μM. Initial rate data was determined from the rate of change of absorbance at 340 nm (corresponding to stoichiometric consumption of NADH) using a Molecular Devices Spectramax plate reader (Sunnyvale, Calif.) over 15 mins at 30° C. For each Ki determination 12 data points covering the VRT concentration range of 0-20 μM were obtained in duplicate (DMSO stocks were prepared from an initial 10 mM VRT stock with subsequent 1:2 serial dilutions). Ki values were calculated from initial rate data by non-linear regression using the Prism software package (Prism 4.0a, Graphpad Software, San Diego, Calif.). […] 1.25 D>2.8 μM.

SMILES | Ki [1] [µM] | Ki [2] [µM] | Ki [3] [µM]
NC(=O)C1(c2cccc(-c3ncnc4[nH]nc(C(F)(F)F)c34)c2)CC1 [Compound 7, 1-(3-(3-(trifluoromethyl)-1H-pyrazolo[3,4-d]pyrimidin-4-yl)phenyl)cyclopropanecarboxamide] | > 1.25 | > 1.25 | > 0.7
N#CC1(c2cccc(-c3ncnc4[nH]nc(C5CC5)c34)c2)CC1 [Compound 1, 1-(3-(3-cyclopropyl-1H-pyrazolo[3,4-d]pyrimidin-4-yl)phenyl)cyclopropanecarbonitrile] | > 1.25 | > 1.25 | 0.05 to 0.5
N#CC1(c2cccc(-c3ncnc4[nH]ncc34)c2)CC1 [Compound 3, 1-(3-(1H-pyrazolo[3,4-d]pyrimidin-4-yl)phenyl)cyclopropane carbonitrile] | > 1.25 | 0.5 to 2.8 | < 0.05
Cc1n[nH]c2ncnc(-c3cccc(C4(C#N)CC4)c3)c12 [Compound 4] | > 1.25 | > 1.25 | < 0.05

The next lines start with the values.

Ki [1] [µM] | Ki [2] [µM] | Ki [3] [µM] | SMILES
> 1.25 | – | < 0.05 | CCc1n[nH]c2ncnc(-c3cccc(C4(C#N)CC4)c3)c12 [Compound 2]
0.05 to 0.5 | 0.05 to 0.5 | < 0.05 | CCc1n[nH]c2ncnc(-c3cc(F)cc(C4(CN)CCC4)c3)c12 [Compound 8, (1-(3-(3-ethyl-1H-pyrazolo[3,4-d]pyrimidin-4-yl)-5-fluorophenyl)cyclobutyl)methanamine]
0.5 to 2.8 | 0.05 to 0.5 | < 0.05 | CCc1n[nH]c2ncnc(-c3cccc(C4(CN)CC4)c3)c12 [Compound 5, (1-(3-(3-ethyl-1H-pyrazolo[3,4-d]pyrimidin-4-yl)phenyl)cyclopropyl)methanamine]
> 1.25 | 0.5 to 2.8 | 0.05 to 0.5 | Cc1n[nH]c2ncnc(-c3cccc(C4(CN)CC4)c3)c12 [Compound 6]
